Assay [1] has as its system human adipocytes. The assay can be described thus: Glycerin release (lipolysis) from human adipocytes treated with EVs. The class given is cell-based. To be noted: for Released glycerin level from adipocytes treated with Panc-1 EVs in presence of inhibitor: 10 μM H89, 0.5 μM orlistat, Cay10499. The method, then:
(§1) Data are in terms of mean±SD (n=3). **P=0.0025. […] Data are in terms of mean±SD (n=3). […] P=0.65.
FIG. 15 This figure is a graph of glycerin release from adipocytes treated for 24 hours with EVs (1.5 μg) derived from Panc-1 cells, in the presence or absence of an inhibitor of endocytosis. The dosage of the inhibitor is as described in FIG. 14. Data are in terms of mean±SD (n=3). P=0.40 (CPZ), *P=0.027 (Nocodazole), *P=0.012 (CytD). **P=0.0065 (Nystatin), and **P=0.0074 (4° C.); comparison with cells treated with EV alone (control). Statistical analyses were carried out using Welch's t-test. […]
EVs having a mode diameter of 100 to 150 nm were isolated from various sources, except for EVs of about 240 nm derived from Capan-2 cells. […] The expression of exosome markers such as TSG101 and CD63 in EVs was confirmed, whereby it was confirmed that EV isolation was appropriate (see FIG. 1). To investigate the effect of EV, mature human adipocytes were induced from human adipose-derived mesenchymal stem cells (hAD-MSCs) and subjected to an EV treatment (see FIGS. 2 to 4). […] Miapapaca-2 cells, and BxPC-3 cells, but it was not observed in adipocytes treated with EVs derived from Capan-2 cells (see FIG. 5).

Assay [2] has as its system adipocytes. Nature of the assay: Isoproterenol-induced glycerin release from adipocytes. The format is cell-based, human.
Source text: as §1
Further, the dependence of the lipolysis induced by EV, under newly synthesized cAMP, was investigated. In general, a β-stimulant such as isoproterenol activates G proteins, and it subsequently activates adenylyl cyclase, which leads to the synthesis of cAMP.

Assay [3] has as its system human adipocytes. The assay can be described thus: EV internalization into human adipocytes by β-actin-HiBiT luciferase activity. The class given is cell-based. To be noted: Panc-1 EVs, 1 hour; 20 IM CPZ, 10 μM nocodazole, 20 μM CytD, 2.5 μg/mL nystatin. The method, then:
The luciferase level is a luciferase level 5 of adipocytes treated for 1 hour with EV ([…]) in the presence or absence of a treatment with an endocytosis inhibitor (20 IM chlorpromazine (CPZ), 10 μM nocodazole, 20 μM cytochalasin D (CytD), or 2.5 μg/mL nystatin, or incubation at 4° C.), which is a value indicated in terms of comparison with a negative control (PBS). Data are in terms of mean±SD (n=3). P=0.74 (CPZ), *P=0.029 (nocodazole), *P=0.032 (CytD), **P=0.0078 (nystatin), and **P=0.0074 (4° C.); comparison with cells treated with EV alone (control).
Wild type: EVs derived from Panc-1 cells (not expressing HiBiT) as a negative control, EV-H and EV-L: EVs derived from Panc-1-ACTB-HiBiT cells cultured with high glucose and low glucose, respectively. […] P=0.61 (EV-H versus EV-L). […] P=0.72. […] The relative luciferase level of adipocytes treated for 1 hour with 10^9 particles of EVs (EV-H and EV-L) derived from Panc-1-ACTB-HiBiT cells was compared with the negative control (PBS). Data are in terms of mean±SD (n=3). **P=0.0011.
Wild type; Panc-1 cells (not expressing HiBiT) as a negative control, EV and EV-NP40; EVs derived from Panc-1-ACTB-HiBiT cells. 10^9 particles per sample were used. Data are in terms of mean±SD (n=3). **P=0.0017 (EV), **P<[…] (EV-NP40), and **P=0.0026 (EV versus EV-NP40). […] The luciferase level of the lysate of adipocytes treated for 1 hour with EVs (10^9 particles) derived from Panc-1-ACTB-HiBiT cells or EV-NP40 was compared with the negative control (PBS), and the results are shown. Data are in terms of mean±SD (n=3). *P=0.045. Statistical analyses were carried out using Welch's t-test.
β-actin is contained as a pan-EV marker in most EVs derived from human serum and human cell lines. To monitor the EV endocytosis level, a reporter cell (Panc-1-ACTB-HiBiT cell) was established by knocking in the HiBiT peptide sequence at the 3′ terminal of the ACTB locus of Panc-1 cell (see FIGS. 11 and 12). A high luciferase activity was detected in a lysate of cells and in EVs derived from these cells, and thus it was confirmed that the β-actin-HiBiT protein is present in the EVs (see FIGS. 13(A) and 13(B).
The luciferase level of the adipocyte lysate was upregualted 1 hour after the addition of EV and was similar to a level in a case where chlorpromazine, a clathrin-mediated endocytosis inhibitor, was used. […] (see FIG. 14).

The mark [4] stands for this setting: 30 μM SQ22536, 24-hour treatment.

Take `COc1nn(-c2ccc(NC(=O)OCc3ccccc3)c(C)c2)c(=O)o1` [Cay10499]: in assay [1], the “Released glycerin level from adipocytes treated with Panc-1 EVs in presence of inhibitor” value (shortened to “Released glycerin level … of inhibitor”) is reported as “significantly reduced”.

As to `O=S(=O)(NCCNC/C=C/c1ccc(Br)cc1)c1cccc2cnccc12` [H89], in assay [1], the “Released glycerin level … of inhibitor” value was “significantly reduced”.

On to `CCCCCCCCCCC[C@@H](C[C@@H]1OC(=O)[C@H]1CCCCCC)OC(=O)[C@H](CC(C)C)NC=O` [Orlistat], for which, in assay [1], the “Released glycerin level … of inhibitor” value is reported as “significantly reduced”.

With `Nc1ncnc2c1ncn2C1CCCO1` (stereo not shown) [SQ22536], the “Inhibition of isoproterenol-induced lipolysis” value in assay [2] (setting [4]) is recorded as “significantly inhibited”. Moreover, the “Inhibition of lipolysis induced by EVs derived from Panc-1” value in assay [1] (setting [4]) is “did not inhibit”.

As to `CN(C)CCCN1c2ccccc2Sc2ccc(Cl)cc21` [chlorpromazine], the “Luciferase level of adipocyte lysate (EV internalization) with endocytosis inhibitor, vs EV alone” value in assay [3] is on record as “similar”.

As to `C=C1[C@@H](C)[C@H]2[C@H](Cc3ccccc3)NC(=O)[C@]23[C@H](OC(C)=O)/C=C/[C@@](C)(O)C(=O)[C@@H](C)C/C=C/[C@H]3[C@@H]1O` [cytochalasin D], in assay [3], the “Luciferase level of adipocyte lysate (EV internalization) with endocytosis inhibitor, vs EV alone” value is on record as “significantly lower”.

On to `CC(C)NCC(O)c1ccc(O)c(O)c1` (stereo not shown) [isoproterenol], for which the “Lipolysis in adipocytes (glycerin release)” value in assay [2] (10 μM isoproterenol) is “induces lipolysis”.

Regarding `COC(=O)Nc1nc2ccc(C(=O)c3cccs3)cc2[nH]1` [nocodazole], in assay [3], the “Luciferase level of adipocyte lysate (EV internalization) with endocytosis inhibitor, vs EV alone” value is recorded as “significantly lower”.

For the compound `C[C@@H]1[C@H](O)[C@@H](C)/C=C/C=C/CC/C=C/C=C/C=C/C=C/C(O[C@H]2O[C@H](C)[C@@H](O)[C@H](N)[C@@H]2O)CC2O[C@](O)(CC(O)C(O)CCC(O)CC(O)CC(O)CC(=O)O[C@H]1C)CC(O)C2C(=O)O` (stereo partly shown) [nystatin], in assay [3], the “Luciferase level of adipocyte lysate (EV internalization) with endocytosis inhibitor, vs EV alone” value is on record as “significantly lower”.

The values are drawn from patent publication US20250109388A1, “METHOD FOR ISOLATING AND CONCENTRATING EXTRACELLULAR VESICLE GROUP DERIVED FROM CANCER CELL, ANALYSIS METHOD, DRUG SELECTION METHOD, KIT, AND ANTI-CANCER AGENT” (THE UNIVERSITY OF TOKYO, priority 2022, published 2025).
